Experimental data: article PMC6399351, “Cationic Intrinsically Disordered Antimicrobial Peptides (CIDAMPs) Represent a New Paradigm of Innate Defense with a Potential for Novel Anti-Infectives” (Scientific Reports, 2019)
Values joined by “and” are separate entries in the source; they are usually repeats but may differ in a detail not shown here. Identical values can stand only once. Like-named read-outs stand apart in the source and are kept apart here. Ends that are not written are not given here.

Experiments:
[1] = test system: Corynebacterium simulans DSM 44415; assay: CFU assay of antimicrobial activity; format: cell-based; settings: 10 mM NaP, pH 6.0, 0.25% glucose
Experimental: All purified peptides and recombinant proteins were applied using a colony forming unit (CFU) assay in different media. Bacteria were grown to early log-phase in BHI, washed either with 10 mM Na-P, pH 7.4/1% TSB or pH 5.5/1% TSB, or pH 5.5 without TSB or BHI, and adjusted to a concentration of 10^4–10^5 colony forming units (CFU)/ml. For cell number control, 100 µl aliquots were diluted 1:10, 1:100 and 1:1000 and plated in duplicates on BHI agar plates. […]
(§1) Then bacteria were incubated for 2 h at ambient temperature, if not otherwise stated. 10 µl of 0.01% (v/v) acetic acid, added to 100 µl aliquots of the bacteria in the respective medium, served as negative control. From each test, 1:10 and 1:100 dilutions were generated and plated as duplicates of 100 µl aliquots on BHI agar plates. After 16 h incubation at 37 °C, CFU were counted using a colony counter (Bio Kobe, Japan) and expressed as mean of the duplicate estimation to achieve a complete dose-response curve. All experiments were performed at serial dilutions in a concentration range of 100 µg/mL −25 ng/mL for recombinant HRNR fragments and 300 or 150 µg/mL–19 ng/mL for synthetic peptides.

P. aeruginosa ATCC 10145 = settings: CFU assay, 10 mM NaP
C. albicans ATCC 24433 = assay: CFU assay of antimicrobial activity; format: cell-based, Candida albicans; settings: 10 mM NaP
Experimental: Bacteria were cultivated in either brain heart infusion medium (BHI), lysogeny broth (LB) or tryptic soy broth (TSB)[88]. If not otherwise stated, bacteria were incubated under shaking conditions (37 °C at 170 rpm) or as indicated on the ATCC- or DSM-data sheets. Candida albicans was cultured for 3 days on Yeast Extract-Peptone Dextrose (YPD) agar at 30 °C and yeast suspensions at appropriate density were treated with CIDAMPs as indicated.
(§2) All purified peptides and recombinant proteins were applied using a colony forming unit (CFU) assay in different media. Bacteria were grown to early log-phase in BHI, washed either with 10 mM Na-P, pH 7.4/1% TSB or pH 5.5/1% TSB, or pH 5.5 without TSB or BHI, and adjusted to a concentration of 10^4–10^5 colony forming units (CFU)/ml. For cell number control, 100 µl aliquots were diluted 1:10, 1:100 and 1:1000 and plated in duplicates on BHI agar plates. To 100 µl aliquots of the bacteria, suspended in the respective medium (10 mM Na-P buffer pH 7,0–7,4/ 1% (w/v) TSB; 10 mM Na-P buffer pH 5,5/ 1% (w/v) TSB; 10 mM Na-P buffer pH 7,0–7,4/ 1% (w/v) TSB pH 7,0–7,4/ 0,25% (w/v) glucose; 10 mM Na-P buffer pH 5,5/ 0,25% (w/v) glucose, respectively), 10 µl of a solution of the peptide or protein (two-fold dilutions, from 300 µg/ml or 150 µg/ml down to 19 ng/ml), dissolved in 0.01% (v/v) acetic acid, were added.
as §1

E. coli ATCC 11775 = assay: CFU assay of antimicrobial activity; format: cell-based, Escherichia coli; settings: 10 mM NaP, pH 5.5, 1% TSB
Experimental: as §2, §1

[2] = test system: Burkholderia cepacia ATCC 25416; settings: CFU assay, 10 mM NaP, pH 5.5, 0.25% glucose
[3] = CFU assay, 10 mM NaP, pH 5.5, 1% TSB

Row | Molecule | LD90 [1] | LD100 [1] | LD90 (P. aeruginosa ATCC 10145; pH 5.5, 0.25% glucose) | LD100 (P. aeruginosa ATCC 10145; pH 5.5, 0.25% glucose) | LD90 (C. albicans ATCC 24433; pH 5.5, 1% TSB) | LD100 (C. albicans ATCC 24433; pH 5.5, 1% TSB) | LD90 (E. coli ATCC 11775) | LD100 (E. coli ATCC 11775) | LD90 (P. aeruginosa ATCC 10145; pH 5.5, 1% TSB) | LD100 (P. aeruginosa ATCC 10145; pH 5.5, 1% TSB) | further results
1 | QSGTHHAENSSGGQAASSHEQAR [FLG2301-2323] | > 150 µg/mL | > 150 µg/mL | > 300 µg/mL | 300 µg/mL |  |  |  |  |  |  | 
2 | QGSHHEQSVNRSGHSGSHHSHTTSQGR [FLG528-554] | > 150 µg/mL | > 150 µg/mL | 0.15 µg/mL | 0.59 µg/mL |  |  |  |  |  |  | activity against S. aureus ATCC 6538 (S. aureus ATCC 6538; at concentrations <60 µM (data not shown)): lack activity
3 | HTQNSSSGQAASSHEQAR [FLG684-701] | > 150 µg/mL | > 150 µg/mL | > 300 µg/mL | > 300 µg/mL |  |  |  |  |  |  | 
4 | QSGTRHTQTSSGGQAASSHEQAR [FLG2625-2647] | > 150 µg/mL | > 150 µg/mL | > 300 µg/mL | > 300 µg/mL |  |  |  |  |  |  | 
5 | QSGTRHAETSSGGQAASSHEQAR [FLG3273-3295] | > 150 µg/mL | > 150 µg/mL | > 300 µg/mL | 300 µg/mL |  |  |  |  |  |  | 
6 | rHRNR2638–2684: recombinant HRNR fragment (QSSGHGRQGSGSGQSPSRGRHGSGLGHSSSHGQHGSGSGRSSSRGPY; UniProt Q86YZ3 2638-2684, looked up, fragment) |  |  |  |  | 6.3 µg/mL | >100 µg/mL | 3.1 µg/mL | >100 µg/mL | 0.39 µg/mL | 12.5 µg/mL | 
7 | GRHGSGLGHSSSHGQHGSGSGRSSSRGPY [HR 1-17] |  |  | 0.038 µg/mL and 0.075 µg/mL | 0.15 µg/mL and 0.3 µg/mL | 18.8 µg/mL | 150 µg/mL | >300 µg/mL | >300 µg/mL | 0.59 µg/mL | 18.75 µg/mL | LD90 (C. albicans ATCC 24433; pH 5.5, 0.25% glucose): 18.8 µg/mL; LD100 (C. albicans ATCC 24433; pH 5.5, 0.25% glucose): 9.38 µg/mL; LD90 [2]: >300 µg/mL; LD100 [2]: >300 µg/mL; LD90 (S. aureus ATCC 6538; [3]): >300 µg/mL; LD100 (S. aureus ATCC 6538; [3]): >300 µg/mL
8 | QSGTRHETSSGGQAASSQEQAR [FLG1652-1674] | > 150 µg/mL | > 150 µg/mL | > 300 µg/mL | > 300 µg/mL |  |  |  |  |  |  | 
9 | rHRNR1075–1172: recombinant HRNR fragment (protein, UniProt Q86YZ3 1075-1172, looked up, fragment) THGQHGSTSGQSSSCGQHGASSGQSSSHGQHGSGSSQSSGYGRQGSGSGQSPGHGQRGSGSRQSPSYGRHGSGSGRSSSSGQHGSGLGESSGFGHHES |  |  |  |  | 1.6 µg/mL | 12.5 µg/mL | 6.25 µg/mL | >100 µg/mL | 6.25 µg/mL | >100 µg/mL | 
10 | rHRNR2727–2850: recombinant HRNR fragment (protein, UniProt Q86YZ3 2727-2850, looked up, fragment) SGQSSTFDQEGSSTGQSSSYGHRGSGSSQSSGYGRHGAGSGQSLSHGRHGSGSGQSSSYGQHGSGSGQSSGYSQHGSGSGQDGYSYCKGGSNHDGGSSGSYFLSFPSSTSPYEYVQEQRCYFYQ |  |  |  |  | 8.6 µg/mL | 137 µg/mL | 0.28 µg/mL | >100 µg/mL | 2.1 µg/mL | 17.1 µg/mL | 
